Laboratory results from patent US20080206175A1, “Composition for Skin Whitening and Wrinkle Improvement Comprising Vaccinium Uliginosum Extract and Method for Preparation Thereof” (priority 2005, published 2008).

Assays:
B16 melanoma F10 cells [1] = experiment: Inhibitory effect on melanin production in B16 melanoma F10 cells; type: cell-based; conditions: 10 μM, 72 hours
Description: B 16 melanoma F 10 cells were seeded into each well of a 24-well plate at a cell concentration of 10^4 cells/well. After 17 hours, the adhesion of the cells was confirmed and the medium was removed. […] The plate was incubated in a CO2 incubator for 72 hours and then the medium was removed. Next, 2 ml of NaOH was added into each well of the plate, followed by standing at 60° C. for 30 minutes. Then, the cell solution was measured for absorbance at 450 nm. The concentration of melanin was calculated compared to the melanin standard curve.

B16 melanoma F10 cells [2] = experiment: Inhibitory effect on total melanin production upon ultraviolet irradiation, B16 melanoma F10 cells; type: cell-based

O=c1cc(CO)occ1O [kojic acid]
production of melanin (B16 melanoma F10 cells [1]): 16.54 µg/mL | melanin production upon ultraviolet irradiation (B16 melanoma F10 cells [2]; 0.2 μM): 22.72 µg/mL | melanin production upon ultraviolet irradiation (B16 melanoma F10 cells [2]; 2 μM): 19.22 µg/mL
